Measurements taken from patent US5922891A, “2-substituted 1,8-dihydroxy-9(10H)-anthracenone pharmaceuticals” (priority 1997, dated 1999).
Where two headings read alike, the source gives them in different places.

Columns and labels:
5-LO in bovine PMNL = target: T1, 5-LO in bovine PMNL (Bos taurus, UniProt F1MQ78); assay: Inhibition of 5-lipoxygenase (5-HETE and LTB4 biosynthesis) in Ca-ionophore-stimulated bovine PMNL; format: cell-based
T1 construct: The purified PMNLs were suspended at a concentration of; endogenous in cells; host or cells: polymorphonuclear leukocytes isolated from bovine blood
T1 sequence (F1MQ78 1-674): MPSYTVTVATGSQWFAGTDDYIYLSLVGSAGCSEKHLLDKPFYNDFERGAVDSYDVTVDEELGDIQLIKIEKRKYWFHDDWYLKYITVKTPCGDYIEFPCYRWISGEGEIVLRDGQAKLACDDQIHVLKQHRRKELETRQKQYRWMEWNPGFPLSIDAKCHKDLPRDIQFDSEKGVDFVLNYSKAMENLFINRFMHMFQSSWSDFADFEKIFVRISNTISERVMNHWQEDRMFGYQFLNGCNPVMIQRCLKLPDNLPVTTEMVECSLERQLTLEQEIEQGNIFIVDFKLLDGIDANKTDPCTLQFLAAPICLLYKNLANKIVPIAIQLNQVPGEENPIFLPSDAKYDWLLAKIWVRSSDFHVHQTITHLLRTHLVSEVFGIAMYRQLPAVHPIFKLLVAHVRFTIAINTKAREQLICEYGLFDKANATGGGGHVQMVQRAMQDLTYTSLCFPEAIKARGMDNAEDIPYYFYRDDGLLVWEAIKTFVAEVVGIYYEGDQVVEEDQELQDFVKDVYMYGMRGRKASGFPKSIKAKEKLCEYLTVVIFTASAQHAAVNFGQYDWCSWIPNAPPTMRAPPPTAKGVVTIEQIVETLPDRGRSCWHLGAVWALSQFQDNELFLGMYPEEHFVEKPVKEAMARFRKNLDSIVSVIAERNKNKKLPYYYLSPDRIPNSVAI
Protocol: Briefly, PMNLs were prepared from sodium EDTA-anticoagulated bovine blood, essentially as described by Walstra, P. et al., (Biochem. Biophys. Acta, 795:499-503 (1984)). Contaminating platelets were removed by repeated centrifugations at 100 g for 20 minutes. […] Cell counts were conducted with a Sysmex micro cell counter CC-130. Preincubation was performed with 2.4 ml of the suspension and 10 μl of a DMSO stock solution of test compounds at the desired concentrations in phosphate buffered saline (PBS) or vehicle control (DMSO at final concentration of 0.4%) for 15 minutes at 37° C. in a shaking water bath at 50 rpm. […] The incubation mixture was held on ice bath for 20 minutes and then centrifuged at 4000 g for 5 minutes at 0° C. The supernatant was diluted with 5 ml of water and passed through a prewashed (10 ml of methanol and 5 ml of water, sequentially) octadecylsilane reversed phase cartridge (Baker). The eicosanoids were eluted with 3 ml of methanol, diluted with 3 ml of water and subjected to reversed phase HPLC analysis using a 250×4 mm column packed with Nucleosil C18 (7 μm particles; Bischoff, Leonberg, Germany). The isocratic elution conditions of LTB4 were tetrahydrofuran (THF)/methanol/water/acetic acid (25+30+45+0.1), adjusted to pH 5.5 with concentrated NH3, at a flow rate of 0.9 ml/min (Kontron 420 pump), monitored at 280 nm with a Kontron 735 LC UV detector. 5-HETE was monitored at 232 nm using methanol/water/acetic acid (77+23+0.1), pH 5.5 and a flow rate 1.0 ml/min. Data were recorded on a MacLab data acquisition system (WissTech, Germany) and analysis was performed using the application Peaks on an Apple Macintosh Quadra 700 computer. Integrated areas of the peaks were compared to a PGB2 internal standard and to external standards of authentic samples. Molar absorption coefficients of Samuelsson et al., Borgeat, P. and B. Samuelsson, (Proc. Natl. Acad. Sci. USA, 76:2148-2152 (1979)), were used for making calculations. Inhibition was calculated by a comparison of the mean value of test compound (n=3) with control (n=6-8) activity: (1-test compound/control)×100.
See Walstra, P. et al., Biochem Biophys. Acta, 795:499-503 (1984); and Dannhardt et al. J. Pharm. Pharmacol., 44:419-424 (1992). […] (Schroder, J. M., J. Invest. Dermatol., 87:624-629 (1986); Tanzer, et al., Arch. Pharm. (Weinheim), 324:841-846 (1991)).

HaCaT cells [1] = assay: Antiproliferative activity against HaCaT cells (human keratinocyte cell line); format: cell-based; settings: 48 h, read-out: AA IC50 (antiproliferative activity)
Protocol: HaCaT cells were grown in Dulbecco's modified Eagle's medium (DMEM, No. 041-11954A, Gibco) supplemented with 10% fetal calf serum, penicillin (100 U/mL), and streptomycin (100 μg/mL) in a humidified incubator containing 8% CO2 at 37° C. Cells (2.5·10^4 /1.1 ml per well) were seeded on 24-well multidishes and grown in DMEM. After 24 hours of growth, the medium was replaced with fresh medium and a test compound (0.1-5 μM) was added from freshly made stock solutions, which were prepared in DMSO and diluted with DMEM. The final concentration of DMSO in the culture medium was 0.2%. Controls were performed using DMSO or medium alone. Forty-eight hours after addition of a test compound to the culture, the medium was removed and each well was rinsed with phosphate-buffered saline (PBS, 100 μL). The cells were then incubated with sterile 0.5% trypsin, 0.2% EDTA in PBS for 20 minutes at 37° C. The detached cells from each well were suspended in DMEM and dispersed as single cells by gentle pipetting through an Eppendorf pipette. Cell growth was determined directly by counting the keratinocytes on a Neubauer counting chamber using phase contrast microscopy. Inhibition of cell proliferation was calculated by a comparison of the mean value of the test compound (N=3) with the control (N=6-8) activity: (1-test compound/control)×100.

[2] = Inhibition of AAPH-induced lipid peroxidation in bovine brain phospholipid liposomes; format: biochemical; settings: AAPH-induced; bovine brain phospholipid liposomes; N = 3 or more; read-out: LPO IC50 (inhibition of lipid peroxidation)
Protocol: Phospholipids were prepared essentially as described by Gutteridge, J. M. C., (Anal. Biochem., 82: 76-82 (1977)). Bovine brain tissue was cooled on ice, freed from blood vessels and washed repeatedly with 0.15 M NaCl, pH 7.4. The tissue was cut into pieces and then macerated with an ultra-turrax, passed through a fine-meshed sieve, and extracted four times with four times the volume of acetone. The extraction mixture was filtered by suction to remove the acetone, the residue dried under vacuum, and then repeatedly extracted with petroleum ether (40-60) using twice the volume of the original brain homogenate. The combined extracts were filtered, dried at 45° C., and dissolved in ether (one fifth the original brain volume). The mixture was treated with five times the volume of acetone, and the resulting precipitate was collected by suction-filtration, dried and stored under N2 at -20° C. in the dark. Bovine brain phospholipids were weighed into glass tubes and shaken in a vortex mixer (Heidolph) in the presence of five small glass beads (.phi. 4 mm) for 1 minute. The phospholipids were suspended in 0.15 M NaCl, pH 7.4, to a final concentration of 5 mg/ml. The mixture was purged with N2 for 1 minute and vigorously dispersed in a vortex mixer for 5 minutes. The liposomes were allowed to swell for 1 hour at 4° C., and vesicles with a mean size of 1-10 μm were obtained according to the method of Bangham, et al., (J. Mol. Biol., 13:238-252 (1965). The liposomes were stimulated with the azo initiator 2 2'-azobis (2-amidinopropane) hydrochloride according to the method of Gutteridge, J. M. C., (Anal. Biochem. 82:76-82 (1977)).
The following reagents were added to the glass tubes containing stimulating bovine brain phospholipid piposomes in the order and at the final concentrations listed: 0.3 ml HK2 PO4 --KOH buffer, pH 7.4 (30 mM), 0.29 ml double distilled H2 O, 0.2 ml liposomes (1 mg/ml), 0.2 ml FeCl3.H2 O (0.1 mM), 0.01 ml 2-substituted anthracenone compound of the invention (variable concentrations).
Appropriate blanks and controls using the vehicle (acetone) were conducted. The final reaction volumes were standardized to 1.0 ml. The reaction mixtures were incubated for 1 hour at 37° C. in a shaking water bath. […] of 20% (w/v) BHT, 0.5 ml 25% (w/v) HCl and 0.5 ml of 1% 2-thiobarbituric acid were added and the samples were heated at 100° C. for 15 minutes and then cooled in an ice bath (5 minutes). 2 ml of 1-butanol were added and the mixtures were vigorously shaken in a vortex mixer (Heidolph) for 15 seconds. The organic layer was separated by centrifugation at 3000 rpm (15 minutes) and absorbance at 532 nm was measured against butanol.

[3] = Deoxyribose degradation as a measure of hydroxyl radical formation; format: biochemical; settings: 75 μM test compound; controls < 0.1
Protocol: ^c Deoxyribose degradation as a measure of hydroxyl radical formation
Indicated values are μmoles of malondialdehyde per mmole of deoxyribos
released by 75 μM test compound (controls < 0.1).
Degradation of deoxyribose provides a measurement of the amount of hydroxyl radical formation caused by the test compounds. The assay used to determine degradation of 2-deoxy-D-ribose followed generally the procedures of Gutteridge, J. M. C., Biochem. J., 224: 761-767 (1984) and Laughton, et al., Biochem. Pharmacol., 38: 2859-2865 (1989). The following reagents were added to glass tubes in the order and at the final concentrations listed. 0.3 mL kH2 PO4 --KOH buffer, pH 7.4 (30 mM), 0.2 ml double distilled H2 O, 0.2 ml 2-deoxy-D-ribose (2 mM), 0.2 ml FeCl3.6H2 O (0.1 mM), 0.1 ml 2-substituted anthracenone ([…]). Stock solutions of each of the 2-substituted anthracenone compounds were made up fresh before use. Appropriate blanks and controls using an acetronitrile vehicle were performed.
Final reaction volumes were standardized to 1.0 ml. The reaction mixtures were incubated for 2 hours at 37° C. in a shaking water bath at 50 rpm. 1 ml of 2.8% (w/v) trichloracetic acid and 1 ml of 1% (w/v in 0.05 N NaOH) 2-thiobarbituric acid (TBA) were added, and the samples were heated at 100° C. for 15 minutes and then cooled in an ice bath (5 minutes). 2 ml of each reaction mixture was treated with 0.05 ml of 36% (w/v) HCl and 2 of 1-butanol, followed by vigorous shaking with a vortex mixer (Heidolph) for 15 seconds. The organic layer was separated by centrifugation at 3000 rpm (15 minutes) and absorbance at 532 nm was measured against butanol. Calibration was performed using a malondialdehyde (MDA) standard prepared by hydrolysis of 1,1,3,3-tetraethoxypropane (Gutteridge, J. M. C., Anal. Biochem., 69: 518-526 (1975). TBA reactive material was expressed in terms of μmol MDA per μmol deoxyribose. The results of the assay are provided in Table I.

[4] = cited from earlier work
[5] = system: LTB4 production in human neutrophils; settings: depending on cell density, read-out: IC50, inhibition of LTB4 production, human neutrophils; cited from earlier work
[6] = psoriasis therapy; cited from earlier work
HaCaT cells [7] = settings: cited from earlier work

Row | Compound | IC50 (5-LO in bovine PMNL; N = 3 or more) [µM] | IC50 (5-LO in bovine PMNL; comparison with compounds of the invention, read-out: IC50) [µM] | IC50 (HaCaT cells [1]) [µM] | IC50 [2] [µM] | DD (deoxyribose degradation, malondialdehyde released) [3] | lipid peroxidation in the presence of iron [4] | IC50 [5] [µM] | side effects of anthralin therapy [6] | sensitivity of HaCaT cells to antiproliferative action (HaCaT cells [7])
1 | CCCCOc1ccc(CC(=O)NO)cc1 [bufexamac, reference compound] | > 30 | > 30 | > 5 | > 200 |  |  |  |  | 
2 | O=C1c2c(O)cccc2Cc2ccc(C(CCc3ccccc3)C(=O)O)c(O)c21 (stereo not shown) [XA, 2-(9,10-Dihydro-1,8-dihydroxy-9-oxo-2-anthracene)-4-phenylbutanoic acid] |  |  | > 5 | 62 | 2.47 ± 0.16 μmol of MDA/mmol |  |  |  | 
3 | CC(C)C(C(=O)N(C)O)c1ccc2c(c1O)C(=O)c1c(O)cccc1C2 (stereo not shown) [VIIID, N-Hydroxy-N-methyl-2-(9,10-dihydro-1,8-dihydroxy-9-oxo-2-anthracene)-3-methylbutanamide] |  |  | 1.5 | 12.5 | 0.86 ± 0.01 μmol of MDA/mmol |  |  |  | 
4 | CC(C)C(C(=O)O)c1ccc2c(c1O)C(=O)c1c(O)cccc1C2 (stereo not shown) [VIIIA, 2-(9,10-Dihydro-1,8-dihydroxy-9-oxo-2-anthracene)-3-methylbutanoic acid] |  |  | > 5 | 155 | 3.58 ± 0.30 μmol of MDA/mmol |  |  |  | 
5 | O=C(CCCCc1ccc2c(c1O)C(=O)c1c(O)cccc1C2)NO [IVC, N-Hydroxy-5-(9,10-dihydro-1,8-dihydroxy-9-oxo-2-anthracene)pentanamide] |  |  | 2 | 62 | 1.38 ± 0.09 μmol of MDA/mmol |  |  |  | 
6 | CN(O)C(=O)Cc1ccc2c(c1O)C(=O)c1c(O)cccc1C2 [ID, N-Hydroxy-N-methyl-(9,10-dihydro-1,8-dihydroxy-9-oxo-2-anthracene)acetamide] |  |  | 0.8 | 29 | 1.67 ± 0.08 μmol of MDA/mmol |  |  |  | 
7 | O=C1c2c(O)cccc2Cc2cccc(O)c21 [anthralin] |  |  | 0.5 to 0.7 |  | 2.89 ± 0.14 μmol of MDA/mmol | enhancement of anthralin-induced lipid peroxidation in the presence of iron | 7 to 74 | increased inflammation and irritation of non-effected skin surrounding treated lesions | extremely sensitive target for the antiproliferative action of anthralin
8 | O=C(O)CCCCc1ccc2c(c1O)C(=O)c1c(O)cccc1C2 [IVA, 5-(9,10-Dihydro-1,8-dihydroxy-9-oxo-2-anthracene) pentanoic acid] |  |  | > 5 | 105 | 2.62 ± 0.41 μmol of MDA/mmol |  |  |  | 
